Measurements published in patent publication EP0022969A1, “Antimycotic compositions containing azolylalkenols and their preparation” (BAYER AG, priority 1979, dated 1981).

Test system: Trichophyton mentagrophytes
Test: Antimicrobial in vivo activity (local) in experimental guinea pig trichophytosis
Set-up: species or system Meerschweinchen der Rasse Pirbright-white
Conditions: guinea pigs infected with Trichophyton mentagrophytes; 1% solution in DMSO:glycerol 1:4, local, once daily from day 3 p.i.; meaning only slight redness and isolated scales, or no signs of infection
Text: Weiße Meerschweinchen der Rasse Pirbright-white wurden auf dem geschorenen, nicht skarifizierten Rücken mit einer Mikro- und Makrokonidien-Suspension von Trichophyton mentagrophytes infiziert.
Die infizierten Tiere wurden, beginnend mit dem 3.Tag p.i., 1 x täglich mit 1%-iger Lösung der erfindungsgemäßen Präparate (in Dimethylsulfoxid:Glycerin=1:4) lokal behandelt.
Bei unbehandelten Tieren entwickelt sich innerhalb von 12 Tagen p.i. das typische Bild einer Dermatophytose mit Rötung, Schuppung und Haarausfall bis zum totalen Integument-Defekt an der Infektionsstelle.

Structure (SMILES)	Wirkung (Infektionszeichen)
CC(C)(C)C(O)C(=Cn1ccnc1)Oc1ccc(F)cc1Cl (stereo not drawn) [Beispiel 9]	gute bis sehr gute Wirkung
CC(C)(C)C(O)C(=Cn1ccnc1)Oc1ccccc1Cl (stereo not drawn) [Beispiel 5]	gute bis sehr gute Wirkung
CC(C)(C)C(O)C(=Cn1ccnc1)Oc1ccc(F)cc1 (stereo not drawn) [Beispiel 1]	gute bis sehr gute Wirkung
